{"source": "patent US6815542B2", "about": "(priority 2000, dated 2004)", "key": {"[1]": {"test": "Oral administration in rats over four weeks (clinical pathology)", "type": "in vivo", "details": "180 mg/kg over four weeks", "text": "Furthermore, it is contemplated that treatment of a viral disease with Levovirin is predominantly based on the modulation of the Th1/Th2 balance towards a Th1 dominated response, and not predominantly based on a direct antiviral effect. The term “direct antiviral” effect or activity as used herein refers to an immediate effect or activity of a drug on viral assembly or replication. In contrast, a reduction of viral activity or replication that is at least in part mediated by one or more components of the immune system is not considered a “direct antiviral” effect or activity. Likewise, it should be appreciated that a relative reduction of the Th2 response during a treatment may be especially advantageous in diseases that are correlated with an increased Th2 response (e.g., HCV infection)."}, "[2]": {"tested_on": "IMP dehydrogenase", "details": "cited from earlier work"}, "[3]": {"tested_on": "ten different viruses", "details": "compared with Ribavirin; cited from earlier work"}, "[4]": {"details": "preliminary toxicology studies; cited from earlier work"}}, "data": [{"smiles": "NC(=O)c1ncn([C@@H]2O[C@H](CO)[C@@H](O)[C@H]2O)n1", "note": "[Ribavirin, 1-β-D-ribofuranosyl-1,2,4-triazole-3-carboxamide]", "values": [{"measurement": "clinical pathology after oral administration", "setting": "[1]", "result": "significant hemolytic anemia and leukopenia"}, {"measurement": "inhibition of IMP dehydrogenase", "setting": "[2]", "result": "inhibitor of IMP dehydrogenase"}]}, {"smiles": "NC(=O)c1ncn([C@H]2O[C@@H](CO)[C@H](O)[C@@H]2O)n1", "note": "[Levovirin]", "values": [{"measurement": "clinical pathology after oral administration", "setting": "[1]", "result": "did not produce any observable clinical pathology"}]}, {"smiles": "N=C(N)c1ncn([C@@H]2O[C@H](CO)[C@@H](O)[C@H]2O)n1", "note": "[Viramidine]", "values": [{"measurement": "antiviral activity", "setting": "[3]", "result": "active in ten different viruses—comparable to Ribavirin"}, {"measurement": "inhibition of IMP dehydrogenase", "setting": "[2]", "result": "inhibitor of IMP dehydrogenase"}, {"measurement": "toxicity relative to Ribavirin", "setting": "[4]", "result": "less toxic than Ribavirin"}]}]}
